We go through 5 compounds from ChEMBL document CHEMBL1201862, “PubChem BioAssay data set” (2004).

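These data come from cells grown in 96-well plates and exposed to compound for 48 hours at five concentrations. GI50 = concentration required for 50% inhibition of growth.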 Active and inactive are the calls of the source. No stated cut-off is given here; in the data, active = GI50 up to about 1.1 µM and inactive = higher.

Test systems include OVCAR-4; SK-MEL-28; A498; COLO 205; NCI-H226; HCT-15; NCI-H460; MCF7; SW-620; UACC-257; NCI/ADR-RES; HCT-116; SNB-75; CAKI-1; SF-295; LOX IMVI; SF-268; SK-OV-3; SK-MEL-5; K562.
What all share (test): NCI tumour cell line growth inhibition, 48 h

`O=P1(c2ccccc2)Nc2ccccc2SSc2ccccc2N1`: the GI50 is 18.6 µM (inactive) with OVCAR-4; 18.7 µM (inactive) in the assay with SK-MEL-28; 20.4 µM (inactive) in the assay with A498; 20 µM (inactive) in the assay with COLO 205; 17 µM (inactive) in the assay on NCI-H226; 17 µM in the assay on HCT-15. Moreover, the GI50 was 18.4 µM (inactive) in the assay on NCI-H460; 16.7 µM (inactive) in the assay with MCF7; 16.7 µM (inactive) in the assay on SW-620; 15.8 µM (inactive) in the assay on UACC-257; 19.9 µM (inactive) in the assay with NCI/ADR-RES; 16.8 µM (inactive) in the assay on HCT-116. In addition, the GI50 in the assay with SNB-75 was 20.4 µM (inactive); with CAKI-1 it was 18.2 µM (inactive); in the assay with SF-295 it was 14.9 µM (inactive); in the assay with LOX IMVI it was 16.2 µM (inactive); in the assay with SF-268, 17.5 µM (inactive); with SK-OV-3, 25.5 µM (inactive). The results for the GI50 in the assay on SK-MEL-5 and in the assay on K562 were 16.9 µM (inactive) and 18.2 µM (inactive), respectively.

In the case of `CC(C)NC(=O)CN1CCN(C2=C(Cl)C(=O)c3c(O)ccc(O)c3C2=O)CC1`, the GI50 in the assay with OVCAR-4 is 1.71 µM (inactive); with SK-MEL-28 it was 1.66 µM (inactive); in the assay with A498 it was 3.05 µM (inactive); in the assay with COLO 205, 1.31 µM (inactive); with NCI-H226, 21.5 µM (inactive); in the assay on HCT-15, 0.693 µM. Further, the GI50 is 7.5 µM (inactive) in the assay with NCI-H460; 1.49 µM (inactive) in the assay on MCF7; 0.546 µM (active) in the assay with SW-620; 1.79 µM (inactive) in the assay with UACC-257; 2.38 µM (inactive) in the assay with NCI/ADR-RES; 1.2 µM (inactive) in the assay with HCT-116. Also, the GI50 with SNB-75 was 3.46 µM (inactive); with CAKI-1, 2.17 µM (inactive); in the assay with SF-295, 7.1 µM (inactive); in the assay on LOX IMVI it was 0.65 µM (active); with SF-268 it was 1.82 µM (inactive); with SK-OV-3, 10.1 µM (inactive). The GI50 was 2 µM (inactive) in the assay on SK-MEL-5 and 0.341 µM (active) with K562.

`COc1cc(CCCOC2OC(COC3OCC(O)C(O)C3O)C(O)C(O)C2O)cc2cc(-c3ccc4c(c3)OCO4)oc12` (stereo not given): the GI50 is > 175 µM (inactive) in the assay with OVCAR-4; > 175 µM (inactive) in the assay with SK-MEL-28; > 27.7 µM (inactive) in the assay with A498; > 175 µM (inactive) in the assay on COLO 205; > 175 µM (inactive) in the assay on NCI-H226; > 175 µM in the assay on HCT-15. The GI50 with NCI-H460, with MCF7, in the assay on SW-620, in the assay on UACC-257, in the assay on NCI/ADR-RES and with HCT-116 was > 175 µM (inactive) throughout. The GI50 with SNB-75, in the assay with CAKI-1, in the assay with SF-295, in the assay on LOX IMVI, in the assay with SF-268 and in the assay on SK-OV-3 was > 175 µM (inactive) in each case. The GI50 in the assay on SK-MEL-5 and in the assay on K562 was > 175 µM (inactive) throughout.

In the case of `O=C(O)/C(Cc1ccnc2ccccc12)=N\O`, the GI50 with OVCAR-4 was > 100 µM (inactive); in the assay with SK-MEL-28 it was > 100 µM (inactive); with A498, > 100 µM (inactive); in the assay with COLO 205, > 100 µM (inactive); with NCI-H226, > 100 µM (inactive); in the assay with HCT-15, > 100 µM. Further, the GI50 in the assay with NCI-H460, with MCF7, in the assay on SW-620, in the assay with UACC-257, with NCI/ADR-RES and with HCT-116 was > 100 µM (inactive) throughout. Moreover, the GI50 with SNB-75, with CAKI-1, in the assay with SF-295, in the assay on LOX IMVI, in the assay with SF-268 and in the assay with SK-OV-3 was > 100 µM (inactive) throughout. In addition, the GI50 with SK-MEL-5 and with K562 was > 100 µM (inactive) each time.

For `CC1CCC2N(C1)CC1C3(O)CC45OC6(O)C(O)CCC4(C)C6CCC5C3(O)CC(O)C1(O)C2(C)O` (stereo not given), the GI50 with OVCAR-4 is > 100 µM (inactive); in the assay on SK-MEL-28, > 100 µM (inactive); in the assay with A498, > 77.6 µM (inactive); with COLO 205 it was > 100 µM (inactive); in the assay with NCI-H226 it was > 100 µM (inactive); in the assay on HCT-15, > 100 µM. Further, the GI50 in the assay on NCI-H460, in the assay on MCF7, in the assay with SW-620, with UACC-257, in the assay on NCI/ADR-RES and with HCT-116 was > 100 µM (inactive) in each case. Also, the GI50 in the assay on SNB-75, with CAKI-1, in the assay with SF-295, with LOX IMVI, in the assay on SF-268 and in the assay with SK-OV-3 was > 100 µM (inactive) in each case. Also, the GI50 in the assay on SK-MEL-5 and in the assay with K562 was > 100 µM (inactive) each time.
